Results from patent publication US20250249056A1, “CANCER THERAPIES COMPRISING A NUCLEAR EXPORT INHIBITOR AND AN ONCOLYTIC VIRUS” (priority 2022, published 2025).

System: Colo205 cells
Format: cell-based, human

SMILES: O=C(/C=C\n1cnc(-c2cc(C(F)(F)F)cc(C(F)(F)F)c2)n1)NNc1cnccn1 [selinexor]
- Differential protein expression, SCAF1: 100
- Differential protein expression, A2ML1 (A8K2U0, selinexor-treated cytoplasm vs control cytoplasm): 3.444
- Differential protein expression, PHF20L1 (A8MW92, selinexor-treated cytoplasm vs control cytoplasm): 0.01
- Differential protein expression, KPNA7 (A9QM74, selinexor-treated cytoplasm vs control cytoplasm): 0.149
- Differential protein expression, accession B2CWB5 (B2CWB5 (gene symbol not given), selinexor-treated cytoplasm vs control cytoplasm): 0.01
- Differential protein expression, m033R (B2CWE0, selinexor-treated cytoplasm vs control cytoplasm): 0.01
- Differential protein expression, m047R (B2CWF4, selinexor-treated cytoplasm vs control cytoplasm): 0.01
- Differential protein expression, m060R (B2CWG7, selinexor-treated cytoplasm vs control cytoplasm): 0.01
- Differential protein expression, accession B2CWJ3 (B2CWJ3 (gene symbol not given), selinexor-treated cytoplasm vs control cytoplasm): 0.01
- Differential protein expression, accession B2CWL4 (B2CWL4 (gene symbol not given), selinexor-treated cytoplasm vs control cytoplasm): 100
- Differential protein expression, m149R (B2CWQ5, selinexor-treated cytoplasm vs control cytoplasm): 100
- Differential protein expression, HNRNPCL2 (B2RXH8, selinexor-treated cytoplasm vs control cytoplasm): 2.92
- Differential protein expression, HNRNPCL3 (B7ZW38, selinexor-treated cytoplasm vs control cytoplasm): 2.963
- Differential protein expression, m107L (E2CZJ6, selinexor-treated cytoplasm vs control cytoplasm): 100
- Differential protein expression, m126R (E2CZL5, selinexor-treated cytoplasm vs control cytoplasm): 0.193
- Differential protein expression, m001R (E2CZP2, selinexor-treated cytoplasm vs control cytoplasm): 3.839
- Differential protein expression, m009L (E2CZQ3, selinexor-treated cytoplasm vs control cytoplasm): 0.01
- Differential protein expression, m055R (E2CZV0, selinexor-treated cytoplasm vs control cytoplasm): 2.342
- Differential protein expression, m072L (E2CZW7, selinexor-treated cytoplasm vs control cytoplasm): 3.124
- Differential protein expression, m086L (E2CZY1, selinexor-treated cytoplasm vs control cytoplasm): 0.01
- Differential protein expression, AGRN (O00468, selinexor-treated cytoplasm vs control cytoplasm): 0.494
- Differential protein expression, SDCBP (O00560, selinexor-treated cytoplasm vs control cytoplasm): 2.743
- Differential protein expression, MPHOSPH10 (O00566, selinexor-treated cytoplasm vs control cytoplasm): 2.761
- Differential protein expression, UBE2C (O00762, selinexor-treated cytoplasm vs control cytoplasm): 0.459
- Differential protein expression, SCD (O00767, selinexor-treated cytoplasm vs control cytoplasm): 0.297
- Differential protein expression, M-T1 (O10625, selinexor-treated cytoplasm vs control cytoplasm): 3.839
- Differential protein expression, CLDN4 (O14493, selinexor-treated cytoplasm vs control cytoplasm): 10.645
- Differential protein expression, UTY (O14607, selinexor-treated cytoplasm vs control cytoplasm): 0.01
- Differential protein expression, MEIS2 (O14770, selinexor-treated cytoplasm vs control cytoplasm): 0.01
- Differential protein expression, BACH1 (O14867, selinexor-treated cytoplasm vs control cytoplasm): 100
- Differential protein expression, IRF6 (O14896, selinexor-treated cytoplasm vs control cytoplasm): 2.466
- Differential protein expression, MYL12B (O14950, selinexor-treated cytoplasm vs control cytoplasm): 2.249
- Differential protein expression, XPO1 (O14980, selinexor-treated cytoplasm vs control cytoplasm): 0.335
- Differential protein expression, MAPK13 (O15264, selinexor-treated cytoplasm vs control cytoplasm): 2.006
- Differential protein expression, DDX3Y (O15523, selinexor-treated cytoplasm vs control cytoplasm): 100
- Differential protein expression, MAFG (O15525, selinexor-treated cytoplasm vs control cytoplasm): 0.453
- Differential protein expression, CLDN3 (O15551, selinexor-treated cytoplasm vs control cytoplasm): 2.357
- Differential protein expression, SPINT1 (O43278, selinexor-treated cytoplasm vs control cytoplasm): 4.255
- Differential protein expression, KDELR3 (O43731, selinexor-treated cytoplasm vs control cytoplasm): 0.379
- Differential protein expression, ZBTB14 (O43829, selinexor-treated cytoplasm vs control cytoplasm): 0.01
- Differential protein expression, HNRNPCL1 (O60812, selinexor-treated cytoplasm vs control cytoplasm): 2.92
- Differential protein expression, NOS1AP (O75052, selinexor-treated cytoplasm vs control cytoplasm): 0.01
- Differential protein expression, SIN3B (O75182, selinexor-treated cytoplasm vs control cytoplasm): 0.01
- Differential protein expression, ZNF217 (O75362, selinexor-treated cytoplasm vs control cytoplasm): 2.042
- Differential protein expression, TAF5L (O75529, selinexor-treated cytoplasm vs control cytoplasm): 100
- Differential protein expression, BANF1 (O75531, selinexor-treated cytoplasm vs control cytoplasm): 2.438
- Differential protein expression, PIAS2 (O75928, selinexor-treated cytoplasm vs control cytoplasm): 100
- Differential protein expression, ZFAND5 (O76080, selinexor-treated cytoplasm vs control cytoplasm): 0.48
- Differential protein expression, SUPT7L (O94864, selinexor-treated cytoplasm vs control cytoplasm): 0.01
- Differential protein expression, HEXIM1 (O94992, selinexor-treated cytoplasm vs control cytoplasm): 3.29
- Differential protein expression, SVIL (O95425, selinexor-treated cytoplasm vs control cytoplasm): 0.01
- Differential protein expression, NUDT3 (O95989, selinexor-treated cytoplasm vs control cytoplasm): 3.124
- Differential protein expression, DHFR (P00374, selinexor-treated cytoplasm vs control cytoplasm): 0.419
- Differential protein expression, OAS1 (P00973, selinexor-treated cytoplasm vs control cytoplasm): 2.17
- Differential protein expression, TIMP1 (P01033, selinexor-treated cytoplasm vs control cytoplasm): 2.021
- Differential protein expression, CSTA (P01040, selinexor-treated cytoplasm vs control cytoplasm): 3.956
- Differential protein expression, FOS (P01100, selinexor-treated cytoplasm vs control cytoplasm): 0.01
- Differential protein expression, KRT14 (P02533, selinexor-treated cytoplasm vs control cytoplasm): 3.261
- Differential protein expression, KRT6A (P02538, selinexor-treated cytoplasm vs control cytoplasm): 3.082
- Differential protein expression, APOD (P05090, selinexor-treated cytoplasm vs control cytoplasm): 7.079
- Differential protein expression, S100A8 (P05109, selinexor-treated cytoplasm vs control cytoplasm): 3.524
- Differential protein expression, CENPB (P07199, selinexor-treated cytoplasm vs control cytoplasm): 0.01
- Differential protein expression, PRSS2 (P07478, selinexor-treated cytoplasm vs control cytoplasm): 0.479
- Differential protein expression, HNRNPC (P07910, selinexor-treated cytoplasm vs control cytoplasm): 2.948
- Differential protein expression, ASNS (P08243, selinexor-treated cytoplasm vs control cytoplasm): 0.353
- Differential protein expression, NFIC (P08651, selinexor-treated cytoplasm vs control cytoplasm): 0.01
- Differential protein expression, KRT16 (P08779, selinexor-treated cytoplasm vs control cytoplasm): 4.248
- Differential protein expression, TOP2A (P11388, selinexor-treated cytoplasm vs control cytoplasm): 0.458
- Differential protein expression, CDK4 (P11802, selinexor-treated cytoplasm vs control cytoplasm): 0.445
- Differential protein expression, NEFH (P12036, selinexor-treated cytoplasm vs control cytoplasm): 2.248
- Differential protein expression, CDH1 (P12830, selinexor-treated cytoplasm vs control cytoplasm): 4.064
- Differential protein expression, KRT10 (P13645, selinexor-treated cytoplasm vs control cytoplasm): 2.123
- Differential protein expression, KRT5 (P13647, selinexor-treated cytoplasm vs control cytoplasm): 2.042
- Differential protein expression, CD59 (P13987, selinexor-treated cytoplasm vs control cytoplasm): 2.269
- Differential protein expression, PLA2G2A (P14555, selinexor-treated cytoplasm vs control cytoplasm): 2.128
- Differential protein expression, CCNB1 (P14635, selinexor-treated cytoplasm vs control cytoplasm): 0.377
- Differential protein expression, MYL6B (P14649, selinexor-treated cytoplasm vs control cytoplasm): 2.392
- Differential protein expression, HNRNPL (P14866, selinexor-treated cytoplasm vs control cytoplasm): 2.044
- Differential protein expression, GLUL (P15104, selinexor-treated cytoplasm vs control cytoplasm): 2.48
- Differential protein expression, ATF2 (P15336, selinexor-treated cytoplasm vs control cytoplasm): 0.01
- Differential protein expression, FOSL2 (P15408, selinexor-treated cytoplasm vs control cytoplasm): 100
- Differential protein expression, H1-3 (P16402, selinexor-treated cytoplasm vs control cytoplasm): 14.354
- Differential protein expression, ZKSCAN1 (P17029, selinexor-treated cytoplasm vs control cytoplasm): 100
- Differential protein expression, SDC1 (P18827, selinexor-treated cytoplasm vs control cytoplasm): 2.678
- Differential protein expression, ATF1 (P18846, selinexor-treated cytoplasm vs control cytoplasm): 100
- Differential protein expression, MYL12A (P19105, selinexor-treated cytoplasm vs control cytoplasm): 2.269
- Differential protein expression, IMPDH1 (P20839, selinexor-treated cytoplasm vs control cytoplasm): 0.485
- Differential protein expression, TGM1 (P22735, selinexor-treated cytoplasm vs control cytoplasm): 2.137
- Differential protein expression, MYL9 (P24844, selinexor-treated cytoplasm vs control cytoplasm): 2.253
- Differential protein expression, DNMT1 (P26358, selinexor-treated cytoplasm vs control cytoplasm): 0.424
- Differential protein expression, RBL1 (P28749, selinexor-treated cytoplasm vs control cytoplasm): 0.395
- Differential protein expression, GRN (P28799, selinexor-treated cytoplasm vs control cytoplasm): 2.493
- Differential protein expression, KDM5A (P29375, selinexor-treated cytoplasm vs control cytoplasm): 0.01
- Differential protein expression, SERPINB3 (P29508, selinexor-treated cytoplasm vs control cytoplasm): 34.048
- Differential protein expression, SLC7A1 (P30825, selinexor-treated cytoplasm vs control cytoplasm): 0.272
- Differential protein expression, S100A7 (P31151, selinexor-treated cytoplasm vs control cytoplasm): 2.547
- Differential protein expression, RRM2 (P31350, selinexor-treated cytoplasm vs control cytoplasm): 0.284
- Differential protein expression, CASP14 (P31944, selinexor-treated cytoplasm vs control cytoplasm): 2.655
- Differential protein expression, CDA (P32320, selinexor-treated cytoplasm vs control cytoplasm): 2.571
- Differential protein expression, GBP1 (P32455, selinexor-treated cytoplasm vs control cytoplasm): 0.01
- Differential protein expression, KRT9 (P35527, selinexor-treated cytoplasm vs control cytoplasm): 0.486
- Differential protein expression, MYH9 (P35579, selinexor-treated cytoplasm vs control cytoplasm): 2.051
- Differential protein expression, MYH10 (P35580, selinexor-treated cytoplasm vs control cytoplasm): 2.213
- Differential protein expression, HSD17B2 (P37059, selinexor-treated cytoplasm vs control cytoplasm): 2.045
- Differential protein expression, FDFT1 (P37268, selinexor-treated cytoplasm vs control cytoplasm): 0.453
- Differential protein expression, PBX3 (P40426, selinexor-treated cytoplasm vs control cytoplasm): 0.01
- Differential protein expression, SLC1A4 (P43007, selinexor-treated cytoplasm vs control cytoplasm): 0.439
- Differential protein expression, MATR3 (P43243, selinexor-treated cytoplasm vs control cytoplasm): 5.731
- Differential protein expression, RFX3 (P48380, selinexor-treated cytoplasm vs control cytoplasm): 0.152
- Differential protein expression, SERPINB4 (P48594, selinexor-treated cytoplasm vs control cytoplasm): 5.894
- Differential protein expression, HNRNPA3 (P51991, selinexor-treated cytoplasm vs control cytoplasm): 2.069
- Differential protein expression, ZNF131 (P52739, selinexor-treated cytoplasm vs control cytoplasm): 0.01
- Differential protein expression, RBM5 (P52756, selinexor-treated cytoplasm vs control cytoplasm): 0.01
- Differential protein expression, PLK1 (P53350, selinexor-treated cytoplasm vs control cytoplasm): 0.01
- Differential protein expression, CEBPG (P53567, selinexor-treated cytoplasm vs control cytoplasm): 0.01
- Differential protein expression, MAPK12 (P53778, selinexor-treated cytoplasm vs control cytoplasm): 2.006
- Differential protein expression, POLG (P54098, selinexor-treated cytoplasm vs control cytoplasm): 0.27
- Differential protein expression, EPHB3 (P54753, selinexor-treated cytoplasm vs control cytoplasm): 0.496
- Differential protein expression, PKNOX1 (P55347, selinexor-treated cytoplasm vs control cytoplasm): 0.01
- Differential protein expression, MAZ (P56270, selinexor-treated cytoplasm vs control cytoplasm): 0.01
- Differential protein expression, HDAC4 (P56524, selinexor-treated cytoplasm vs control cytoplasm): 0.458
- Differential protein expression, PCBP3 (P57721, selinexor-treated cytoplasm vs control cytoplasm): 2.306
- Differential protein expression, CKS1B (P61024, selinexor-treated cytoplasm vs control cytoplasm): 0.422
- Differential protein expression, POLR2F (P61218, selinexor-treated cytoplasm vs control cytoplasm): 2.135
- Differential protein expression, SNRPE (P62304, selinexor-treated cytoplasm vs control cytoplasm): 2.173
- Differential protein expression, SNRPF (P62306, selinexor-treated cytoplasm vs control cytoplasm): 2.172
- Differential protein expression, SNRPD1 (P62314, selinexor-treated cytoplasm vs control cytoplasm): 2.056
- Differential protein expression, SNRPD2 (P62316, selinexor-treated cytoplasm vs control cytoplasm): 2.406
- Differential protein expression, RHOB (P62745, selinexor-treated cytoplasm vs control cytoplasm): 0.01
- Differential protein expression, ARF1 (P84077, selinexor-treated cytoplasm vs control cytoplasm): 2.133
- Differential protein expression, H3-3A; H3-3B (P84243, selinexor-treated cytoplasm vs control cytoplasm): 3.295
- Differential protein expression, HSPG2 (P98160, selinexor-treated cytoplasm vs control cytoplasm): 0.441
- Differential protein expression, KRT24 (Q2M2I5, selinexor-treated cytoplasm vs control cytoplasm): 2.716
- Differential protein expression, SMU1 (Q2TAY7, selinexor-treated cytoplasm vs control cytoplasm): 2.21
- Differential protein expression, KRT71 (Q3SY84, selinexor-treated cytoplasm vs control cytoplasm): 4.935
- Differential protein expression, COA6 (Q5JTJ3, selinexor-treated cytoplasm vs control cytoplasm): 2.872
